Values joined by “and” are separate entries in the source; they are usually repeats but may differ in a detail not shown here. Equal entries are not always repeated.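 Tested at 5 concentrations; 48 h exposure; 96-well plates; endpoints linearly interpolated, else capped at highest concentration. GI50 marks 50% less growth. Definition used: TGI = concentration required for complete inhibition of growth.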
Tests used:
Test in all cases: NCI-60 cell line screen, 48 h
DU-145 prostate = tested on: DU-145 prostate
HS 578T breast = tested on: HS 578T breast
MDA-MB-435 = tested on: MDA-MB-435
PC-3 prostate = tested on: PC-3 prostate
T-47D breast = tested on: T-47D breast
NCI/ADR-RES ovarian = tested on: NCI/ADR-RES ovarian

Compound | TGI (DU-145 prostate) | GI50 (HS 578T breast) | TGI (HS 578T breast) | GI50 (MDA-MB-435) | TGI (MDA-MB-435) | GI50 (PC-3 prostate) | TGI (PC-3 prostate) | GI50 (T-47D breast) | TGI (T-47D breast) | GI50 (DU-145 prostate) | GI50 (NCI/ADR-RES ovarian) | TGI (NCI/ADR-RES ovarian)
COc1ccc2c(c1)NC(=O)CN2c1nc(C)nc2ccccc12 | > 100 µM | 0.000601 µM | > 100 µM | 0.000208 µM | 0.000484 µM | 0.000636 µM | > 100 µM | 5.89 µM | > 100 µM | – | – | –
COc1cc(OC)c2c(c1Cl)O[C@]1(C2=O)C(OCc2ccccc2)=CC(=O)C[C@H]1C | 5.63 µM | 3.17 µM | 32.5 µM | 0.23 µM | 0.549 µM | 1.6 µM | 63.3 µM | 0.792 µM | 67.8 µM | 0.485 µM | 0.584 µM | 3.72 µM
COC(=O)C(=O)C(C(=O)C(=O)Nc1nc(=S)[nH][nH]1)c1nc2ccc([N+](=O)[O-])cc2[nH]c1=O (stereo not given) | – | – | > 100 µM | – | > 100 µM | – | > 100 µM | – | > 100 µM | – | – | > 100 µM
NC(=S)N=Nc1c(O)[nH]c2ccccc12 | 284 µM | 195 µM | 691 µM | 925 µM | > 1000 µM | 172 µM | 392 µM | 184 µM | 617 µM | 126 µM | – | –
CCC(=O)OCN1C(=O)C=CC1=O | 34.2 µM and 30.2 µM | 27.8 µM | 73.3 µM and 36.5 µM | 17.4 µM | 32.8 µM and 28.5 µM | – | 33.1 µM and 30.9 µM | – | – | 20 µM | – | 56.2 µM and 63.5 µM
COc1ccc(CNC(=O)c2c(C)n([O-])c3cc(F)c(F)cc3[n+]2=O)cc1 | 26.5 µM | 2.11 µM | 5.96 µM | – | – | 11.7 µM | 23.9 µM | 3.33 µM | 16.1 µM | 13.7 µM | 17 µM | 31.6 µM
COc1cc2c3c(n(CCCN4CCN(CCO)CC4)c(=O)c2cc1OC)-c1cc2c(cc1C3=O)OCO2 | 2.41 µM | > 100 µM | > 100 µM | > 100 µM | > 100 µM | 13.2 µM | 35.4 µM | > 100 µM | > 100 µM | 0.107 µM | 18.2 µM | > 100 µM
CC(C)CC1NC(=O)C(C(C)C)NC(=O)CC(C)COC(=O)C(CC(C)C)N(C)C(=O)C(C(C)C)NC(=O)C(C(C)C)OC1=O (stereo not given) | > 50 µM | – | > 50 µM | – | > 50 µM | – | > 50 µM | – | > 50 µM | – | – | > 50 µM
N#CC1C(=O)NC(=O)C(C#N)C1c1ccc(Cl)c(Cl)c1 (stereo not given) | > 100 µM | – | 65.6 µM | – | 49 µM | – | > 100 µM | – | > 100 µM | – | – | 83.1 µM
CC1SC(c2cccc(Cl)c2)N(NC(=O)C(O)c2ccccc2)C1=O (stereo not given) | > 100 µM | > 100 µM | > 100 µM | > 100 µM | > 100 µM | > 100 µM | > 100 µM | > 100 µM | > 100 µM | > 100 µM | – | –
N#CC(CC(=O)O)=C(c1ccccc1)c1ccccc1 | – | – | > 100 µM | – | > 100 µM | – | > 100 µM | – | – | – | – | > 100 µM
COc1ccc(-c2cc(=O)c3cccnc3[nH]2)cc1 | > 100 µM | – | > 100 µM | 20 µM | 91.6 µM | 31.7 µM | > 100 µM | – | > 100 µM | – | – | > 100 µM

— PubChem BioAssay (NCI)
